According to PubChem BioAssay AID248 (DTP/NCI, 2004):
Toxic doses and inconclusive results are not listed. Cut-off read from the data, not from the text of the source: active = T/C of 150% or more; inactive = T/C below 125%.

System: L1210 leukemia ip in BDF1 mice, survival T/C
Test: NCI In Vivo Anticancer Drug Screen. Data for tumor model L1210 Leukemia (intraperitoneal) in B6D2F1 (BDF1) mice
Settings: endpoint: mean survival time, higher = longer survival
Outline: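 Read-out is survival time, reported as the treated-group measurement over the vehicle-control measurement.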

[1] = dose: 100.0 mg/kg/injection, schedule: Q01DX001 (ip), vehicle: saline
[2] = dose: 200.0 mg/kg/injection, schedule: Q01DX001 (ip), vehicle: saline
[3] = dose: 400.0 mg/kg/injection, schedule: Q01DX001 (ip), vehicle: saline
[4] = dose: 100.0 mg/kg/injection, schedule: Q01DX009 (ip), vehicle: saline with Tween-80
[5] = dose: 100.0 mg/kg/injection, schedule: Q04DX003 (ip), vehicle: saline with Tween-80
[6] = dose: 200.0 mg/kg/injection, schedule: Q01DX009 (ip), vehicle: saline with Tween-80
[7] = dose: 200.0 mg/kg/injection, schedule: Q04DX003 (ip), vehicle: saline with Tween-80
[8] = dose: 400.0 mg/kg/injection, schedule: Q04DX003 (ip), vehicle: saline with Tween-80
[9] = dose: 100.0 mg/kg/injection, schedule: Q01DX009 (ip), vehicle: Klucel (hydroxypropylcellulose) (HPC)
[10] = dose: 100.0 mg/kg/injection, schedule: Q04DX003 (ip), vehicle: Klucel (hydroxypropylcellulose) (HPC)
[11] = dose: 200.0 mg/kg/injection, schedule: Q01DX009 (ip), vehicle: Klucel (hydroxypropylcellulose) (HPC)
[12] = dose: 200.0 mg/kg/injection, schedule: Q04DX003 (ip), vehicle: Klucel (hydroxypropylcellulose) (HPC)
[13] = dose: 400.0 mg/kg/injection, schedule: Q01DX009 (ip), vehicle: Klucel (hydroxypropylcellulose) (HPC)
[14] = dose: 400.0 mg/kg/injection, schedule: Q04DX003 (ip), vehicle: Klucel (hydroxypropylcellulose) (HPC)
[15] = dose: 50.0 mg/kg/injection, schedule: Q01DX009 (ip), vehicle: saline with Tween-80
[16] = dose: 75.0 mg/kg/injection, schedule: Q01DX001 (ip), vehicle: other
[17] = dose: 150.0 mg/kg/injection, schedule: Q01DX001 (ip), vehicle: other
[18] = dose: 300.0 mg/kg/injection, schedule: Q01DX001 (ip), vehicle: other

Measured: T/C

COC(C(OC(C)=O)C(OC(C)=O)C(OC(C)=O)C(COC(C)=O)OC(C)=O)n1cc(C)c(=O)[nH]c1=O (centres undefined)
inactive: dose: 50.0 mg/kg/injection, schedule: Q01DX001 (ip), vehicle: saline 103 % of control | [1] 97 % of control | [2] 95 % of control | [3] 91 % of control

O=[N+]([O-])c1cc[n+]([O-])c(Br)c1
inactive: [4] 98 % of control | [5] 108 % of control | [6] 103 % of control | [7] 101 % of control | dose: 400.0 mg/kg/injection, schedule: Q01DX009 (ip), vehicle: saline with Tween-80 97 % of control | [8] 93 % of control

CCN(CC)c1ccc(/C=C/C=O)cc1
inactive: dose: 50.0 mg/kg/injection, schedule: Q01DX009 (ip), vehicle: gum acacia 103 % of control | dose: 100.0 mg/kg/injection, schedule: Q01DX009 (ip), vehicle: gum acacia 103 % of control | dose: 100.0 mg/kg/injection, schedule: Q04DX003 (ip), vehicle: gum acacia 93 % of control | dose: 200.0 mg/kg/injection, schedule: Q01DX009 (ip), vehicle: gum acacia 91 % of control | dose: 200.0 mg/kg/injection, schedule: Q04DX003 (ip), vehicle: gum acacia 96 % of control

CNC(c1ccncc1)C(NC)c1ccncc1 (centres undefined)
inactive: [9] 94 % of control | [10] 95 % of control | [11] 91 % of control | [12] 95 % of control | [13] 96 % of control | [14] 95 % of control

OC1C2C3CCC(CC3)C2C(C2OCCO2)C2C3CCC(C3)C12 (centres undefined)
inactive: [15] 96 % of control | [4] 96 % of control | [6] 89 % of control

CCOC(=O)/C=C(/N)c1c(C)[nH]c2ccccc12
inactive: [1] 102 % of control | [2] 113 % of control | [3] 87 % of control

CC12C=CC(C=C1)C(O)C2 (centres undefined)
inactive: [9] 101 % of control | [10] 97 % of control | [11] 114 % of control | [12] 96 % of control | [13] 90 % of control | [14] 94 % of control

CCNC(=O)Nc1ccc(C)cc1
inactive: dose: 100.0 mg/kg/injection, schedule: Q01DX001 (ip), vehicle: carboxymethylcellulose (CMC) 105 % of control | dose: 200.0 mg/kg/injection, schedule: Q01DX001 (ip), vehicle: carboxymethylcellulose (CMC) 97 % of control | dose: 400.0 mg/kg/injection, schedule: Q01DX001 (ip), vehicle: carboxymethylcellulose (CMC) 103 % of control

CC(=O)NC1CCC(O)CC1 (centres undefined)
inactive: [1] 104 % of control | [2] 94 % of control | [3] 107 % of control

O=C(O)CCCC1CC(=O)c2c(c(O)c3ccccc3c2O)C1=O (centres undefined)
inactive: [15] 101 % of control | [4] 103 % of control | [5] 101 % of control | [6] 101 % of control | [7] 95 % of control | [8] 95 % of control

CC(C)C/C=N/Nc1ccnc(SCc2ccccc2)n1
inactive: dose: 100.0 mg/kg/injection, schedule: Q04DX003 (ip), vehicle: DMSO 95 % of control | dose: 200.0 mg/kg/injection, schedule: Q04DX003 (ip), vehicle: DMSO 103 % of control | dose: 400.0 mg/kg/injection, schedule: Q04DX003 (ip), vehicle: DMSO 95 % of control

O=c1[nH]cnc2c1ncn2Cc1cccc(Cl)c1
inactive: dose: 50.0 mg/kg/injection, schedule: Q04DX002 (ip), vehicle: Klucel (hydroxypropylcellulose) (HPC) 86 % of control | dose: 100.0 mg/kg/injection, schedule: Q04DX002 (ip), vehicle: Klucel (hydroxypropylcellulose) (HPC) 94 % of control | dose: 200.0 mg/kg/injection, schedule: Q04DX002 (ip), vehicle: Klucel (hydroxypropylcellulose) (HPC) 91 % of control

CCCCCCCCCN1C(=O)c2ccccc2S1(=O)=O
inactive: dose: 222.0 mg/kg/injection, schedule: Q01DX Z (ip), vehicle: saline 100 % of control | dose: 333.0 mg/kg/injection, schedule: Q01DX Z (ip), vehicle: saline 97 % of control | dose: 500.0 mg/kg/injection, schedule: Q01DX Z (ip), vehicle: saline 91 % of control

CCOCCOC(=O)c1ccc(C(N)=NC2CCCCC2)cc1
inactive: [1] 100 % of control | [2] 102 % of control | [3] 90 % of control

CCC1C(CC)N1S(=O)(=O)c1ccccc1 (centres undefined)
inactive: dose: 100.0 mg/kg/injection, schedule: Q04DX002 (ip), vehicle: saline with Tween-80 100 % of control | dose: 200.0 mg/kg/injection, schedule: Q04DX002 (ip), vehicle: saline with Tween-80 103 % of control

Cc1cc(Cl)nc2ccc(Cc3ccc(Cl)cc3)cc12
inactive: [1] 97 % of control | [2] 92 % of control | [3] 93 % of control

CC(=O)OC1CCC2(C)C3=C(CCC2C1(C)C)C1(C)CCC(C(C)CCC2NC2(C)C)C1(C)CC3 (centres undefined)
inactive: dose: 100.0 mg/kg/injection, schedule: Q04DX003 (sc), vehicle: steriod suspending solution 105 % of control | dose: 200.0 mg/kg/injection, schedule: Q04DX003 (sc), vehicle: steriod suspending solution 101 % of control | dose: 400.0 mg/kg/injection, schedule: Q04DX003 (sc), vehicle: steriod suspending solution 105 % of control

CN(C)C(=S)Sc1ccc([N+](=O)[O-])cc1
inactive: [16] 103 % of control | [17] 96 % of control | [18] 91 % of control

O=[N+]([O-])c1cccc2cccc([N+](=O)[O-])c12
inactive: dose: 100.0 mg/kg/injection, schedule: Q01DX009 (ip), vehicle: saline 91 % of control | dose: 100.0 mg/kg/injection, schedule: Q04DX003 (ip), vehicle: saline 103 % of control | dose: 200.0 mg/kg/injection, schedule: Q01DX009 (ip), vehicle: saline 86 % of control | dose: 200.0 mg/kg/injection, schedule: Q04DX003 (ip), vehicle: saline 98 % of control | dose: 400.0 mg/kg/injection, schedule: Q04DX003 (ip), vehicle: saline 101 % of control

CC1(C)SC(N=C=Nc2ccccc2)CN1C=O (centres undefined)
inactive: [16] 96 % of control | [17] 86 % of control | [18] 93 % of control

CCCCCC(=O)N(CC)C(=NCC)c1ccc(NC(=O)c2ccc(C(=O)Nc3ccc(C(=NCC)N(CC)C(=O)CCCCC)cc3)cc2)cc1
inactive: dose: 3.12 mg/kg/injection, schedule: Q01DX015 (ip), vehicle: methylcellulose (MC) 100 % of control | dose: 6.25 mg/kg/injection, schedule: Q01DX015 (ip), vehicle: methylcellulose (MC) 102 % of control | dose: 12.5 mg/kg/injection, schedule: Q01DX015 (ip), vehicle: methylcellulose (MC) 94 % of control | dose: 25.0 mg/kg/injection, schedule: Q01DX015 (ip), vehicle: methylcellulose (MC) 88 % of control | dose: 50.0 mg/kg/injection, schedule: Q01DX015 (ip), vehicle: methylcellulose (MC) 100 % of control | dose: 100.0 mg/kg/injection, schedule: Q01DX015 (ip), vehicle: methylcellulose (MC) 100 % of control | dose: 200.0 mg/kg/injection, schedule: Q01DX015 (ip), vehicle: methylcellulose (MC) 90 % of control | dose: 400.0 mg/kg/injection, schedule: Q01DX015 (ip), vehicle: methylcellulose (MC) 90 % of control
